Test results from patent publication US7420001B2 (Wyeth, priority 2003, dated 2008).
Read-outs that look alike come from different tables or passages of the source.

Key:
MMP-2 = molecular target: T1, MMP-2 (Homo sapiens, UniProt P08253); experiment: In-vitro fluorescence assay of MMP-2 activity; assay type: biochemical; settings: recombinant human MMP-2; read-out: MMP-2 IC50
T1 construct: purchased Oncogene Research Products (Calbiochem) PF023
T1 sequence (P08253 110-660): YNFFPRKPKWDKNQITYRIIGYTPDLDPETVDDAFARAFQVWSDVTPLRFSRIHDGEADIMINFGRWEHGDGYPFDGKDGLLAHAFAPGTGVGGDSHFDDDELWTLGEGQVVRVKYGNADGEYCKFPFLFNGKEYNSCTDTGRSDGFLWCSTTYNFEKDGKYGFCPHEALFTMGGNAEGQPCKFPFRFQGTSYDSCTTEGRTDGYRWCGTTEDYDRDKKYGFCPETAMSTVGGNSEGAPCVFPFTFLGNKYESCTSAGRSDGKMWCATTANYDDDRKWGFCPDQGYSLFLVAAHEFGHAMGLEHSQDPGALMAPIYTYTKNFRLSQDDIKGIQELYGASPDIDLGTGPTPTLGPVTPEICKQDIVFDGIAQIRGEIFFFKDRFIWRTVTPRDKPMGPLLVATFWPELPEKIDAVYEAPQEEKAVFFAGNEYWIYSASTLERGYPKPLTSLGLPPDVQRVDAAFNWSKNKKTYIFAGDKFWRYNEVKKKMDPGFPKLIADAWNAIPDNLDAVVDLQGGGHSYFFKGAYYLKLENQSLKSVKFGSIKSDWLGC
From the text: A continuous assay was used in which the substrate is a synthetic peptide containing a fluorescent group (7-methoxycoumarin; Mca) which is quenched by energy transfer to a 2,4-dinitrophenyl group. […] The source of enzyme in the assay was the recombinant human MMP-2 (66 kDa) purchased from Oncogene Research Products (catalog number PF023 from Calbiochem). The substrate used was Mca-PQGL-(3-[2,4-dinitrophenyl]-L-2,3-diaminopropionyl)-AR-OH (denoted as Wammp-5, custom synthesized by AnaSpec, Inc.). The assay buffer consisted of 50 mM Hepes (pH 7.4), 100 mM NaCl, 5 mM CaCl2, and 0.005% Brij-35. […] The enzymatic reactions were initiated by adding the substrate to a final concentration of 20 μM, and mixing 10 times with a pipette. The final DMSO concentration in the assay was 6.0%.
(§1) Plots of the inhibitor concentration vs. the percent inhibition were fit to the following equation: y=(a−d)/[1+(x/c)^b]+d, a general sigmoidal curve with Hill slope, a to d. x is the inhibitor concentration under test. y is the percent inhibition. a is the limiting response as x approaches zero. As x increases without bound, y tends toward its limit d. c is the inflection point (IC50) for the curve. That is, y is halfway between the lower and upper asymptotes when x=c. b is the slope factor or Hill coefficient.

MMP-12 = molecular target: T2, MMP-12 (Homo sapiens, UniProt P39900); experiment: In vitro fluorescence assay of MMP-12 activity; assay type: biochemical; settings: recombinant human MMP-12
T2 construct: made in house
Method: A continuous, assay was used in which the substrate is a synthetic peptide containing a fluorescent group (7-methoxycoumarin; Mca) which is quenched by energy transfer to a 2,4-dinitrophenyl group. […] The concentration of the substrate stock was spectrophotometrically determined using the extinction coefficient at 410 nm of 7500 M^−1cm^−1. The assay buffer (pH 7.4) consisted of 50 mM Hepes, 100 mM NaCl, 5 mM CaCl2, and 0.005% Brij-35. […] The plates were then incubated at room temperature for 30 minutes. The enzymatic reactions were initiated by adding substrate to a final concentration of 20 μM and they were mixed by pipetting up and down. The final DMSO concentration in the assay was 10% and the final, total assay volume was 200 μl.

MMP-13 = molecular target: T3, MMP-13 (Homo sapiens, UniProt P45452); experiment: In-vitro fluorescence assay of MMP-13 activity; assay type: biochemical
T3 construct: made in house
Method: A continuous assay was used in which the substrate is a synthetic peptide containing a fluorescent group (7-methoxycoumarin; Mca) which is quenched by energy transfer to a 2,4-dinitrophenyl group. […] The substrate used was Mca-PQGL-(3-[2,4-dinitrophenyl]-L-2,3-diaminopropionyl)-AR-OH (denoted as Wammp-5, custom synthesized by AnaSpec, Inc.). The assay buffer consisted of 50 mM Hepes (pH 7.4), 100 mM NaCl, 5 mM CaCl2, and 0.005% Brij-35. Each well of black polystyrene 96-well plates contained a 200 μL reaction mixture consisting of assay buffer, purified MMP (final concentration of 0.5 nM, prepared by diluting with the assay buffer), and varied concentrations of inhibitor (prepared by serially diluting a given inhibitor in DMSO in 96-well polypropylene plate). […] The enzymatic reactions were initiated by adding the substrate to a final concentration of 20 μM, and mixing 10 times with a pipette. The final DMSO concentration in the assay was 6.0%.
as §1

MMP-1 = molecular target: T4, MMP-1 (Homo sapiens, UniProt P03956)
T4 sequence (P03956 100-269 limits assumed): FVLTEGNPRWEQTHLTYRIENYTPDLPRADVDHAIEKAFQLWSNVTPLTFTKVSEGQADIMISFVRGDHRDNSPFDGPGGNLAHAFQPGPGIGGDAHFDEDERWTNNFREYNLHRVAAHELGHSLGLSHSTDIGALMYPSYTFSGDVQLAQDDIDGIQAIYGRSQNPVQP
Method: A continuous assay was used in which the substrate is a synthetic peptide containing a fluorescent group (7-methoxycoumarin; Mca) which is quenched by energy transfer to a 2,4-dinitrophenyl group. […] The substrate used was Mca-PQGL-(3-[2,4-dinitrophenyl]-L-2,3-diaminopropionyl)-AR-OH (denoted as Wammp-5, custom synthesized by AnaSpec, Inc.). The assay buffer consisted of 50 mM Hepes (pH 7.4), 100 mM NaCl, 5 mM CaCl2, and 0.005% Brij-35. Each well of black polystyrene 96-well plates contained a 200 μL reaction mixture consisting of assay buffer, purified MMP (final concentration of 25 ng/ml, prepared by diluting with the assay buffer), and varied concentrations of inhibitor (prepared by serially diluting a given inhibitor in DMSO in 96-well polypropylene plate). […] The enzymatic reactions were initiated by adding the substrate to a final concentration of 20 μM, and mixing 10 times with a pipette. The final DMSO concentration in the assay was 6.0%.
as §1

MMP-14 = molecular target: T5, MMP-14 (Homo sapiens, UniProt P50281); experiment: In-vitro fluorescence assay of MMP-14 activity; assay type: biochemical
T5 construct: 20 kDa; purchased Chemicon International, Inc. CC 1041
Method: A continuous assay was used in which the substrate is a synthetic peptide containing a fluorescent group (7-methoxycoumarin; Mca) which is quenched by energy transfer to a 2,4-dinitrophenyl group. […] The substrate used was Mca-PQGL-(3-[2,4-dinitrophenyl]-L-2,3-diaminopropionyl)-AR-OH (denoted as Wammp-5, custom synthesized by AnaSpec, Inc.). The assay buffer consisted of 50 mM Hepes (pH 7.4), 100 mM NaCl, 5 mM CaCl2, and 0.005% Brij-35. […] The enzymatic reactions were initiated by adding the substrate to a final concentration of 20 μM, and mixing 10 times with a pipette. The final DMSO concentration in the assay was 6.0%.
as §1

[1] = recombinant human catalytic domain of MMP-13, read-out: MMP-13 IC50
[2] = recombinant human catalytic domain of MMP-14

T2 sequence (P39900 106-280 limits assumed): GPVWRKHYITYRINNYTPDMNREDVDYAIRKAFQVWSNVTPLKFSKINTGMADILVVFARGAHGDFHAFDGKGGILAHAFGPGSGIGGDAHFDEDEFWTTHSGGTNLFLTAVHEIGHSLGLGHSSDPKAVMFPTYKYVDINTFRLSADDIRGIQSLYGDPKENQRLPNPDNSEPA

| SMILES | IC50 (MMP-2) [nM] | IC50 (MMP-12) [nM] | IC50 (MMP-13; [1]) [nM] | IC50 (MMP-1) [nM] | IC50 (MMP-14; [2]) [nM] | IC50 (MMP-13; MMP-13 IC50, recombinant human catalytic domain of MMP-13) [nM] | IC50 (MMP-1; read-out: MMP-1 IC50, recombinant human catalytic domain of MMP-1) [nM] | IC50 (MMP-14) [nM] |
| --- | --- | --- | --- | --- | --- | --- | --- | --- |
| COCC#Cc1cccc2oc(C(=O)Nc3ccc(-c4ccc(S(=O)(=O)N[C@H](C(=O)O)C(C)C)cc4)cc3)c(C)c12 [Example 22, L-2-(4′-{[4-(3-Methoxy-prop-1-ynyl)-3-methyl-benzofuran-2-carbonyl]-amino}-biphenyl-4-sulfonylamino)-3-methyl-butyric acid] | 1940 | 137 | 12 |  |  |  |  |  |
| CC(C)[C@H](NS(=O)(=O)c1ccc(-c2ccc(NC(=O)c3cc4c(-c5ccccc5)nn(C)c4s3)cc2)cc1)C(=O)O [Example 167, (S)-3-Methyl-2-{4′-[(1-methyl-3-phenyl-1H-thieno[2,3-c]pyrazole-5-carbonyl)-amino]-biphenyl-4-sulfonylamino}-butyric acid] | 9300 | 97 | 12 | 90000 | 11000 |  |  |  |
| CC(=O)Nc1cccc2oc(C(=O)Nc3ccc(-c4ccc(S(=O)(=O)N[C@H](C(=O)O)C(C)C)cc4)cc3)c(C)c12 [Example 48, L-2-{4′-[(4-Acetylamino-3-methyl-benzofuran-2-carbonyl)-amino]-biphenyl-4-sulfonylamino}-3-methyl-butyric acid] | 3810 | 226 | 25 |  |  |  |  |  |
| Cc1c(C(=O)Nc2ccc(-c3ccc(S(=O)(=O)N[C@H](C(=O)O)C(C)C)cc3)cc2)oc2cccc(-c3cccnc3)c12 [Example 111, (S)-3-methyl-2-{4′-[(3-methyl-4-pyridin-3-yl-benzofuran-2-carbonyl)-amino]-biphenyl-4-sulfonylamino}-butyric acid] | 1340 | 84 | 4 | 22000 | 7310 |  |  |  |
| Cc1c(C(=O)Nc2ccc(-c3ccc(S(=O)(=O)N[C@H](C(=O)O)C(C)C)cc3)cc2)oc2cccc(Oc3ccccc3)c12 [Example 155, L-3-Methyl-2-{4′-[(3-methyl-4-phenoxy-benzofuran-2-carbonyl)-amino]-biphenyl-4-sulfonylamino}-butyric acid] | 5000 | 508 |  | 25000 | 8000 | 19 |  |  |
| Cc1c(C(=O)Nc2ccc(-c3ccc(S(=O)(=O)N[C@H](C(=O)O)C(C)C)cc3)cc2)oc2cccc(NS(C)(=O)=O)c12 [Example 36, L-2-{4′-[(4-Methanesulfonylamino-3-methyl-benzofuran-2-carbonyl)-amino]-biphenyl-4-sulfonylamino}-3-methyl-butyric acid] | 2250 | 126 | 11 |  |  |  |  |  |
| Cc1c(C(=O)Nc2ccc(-c3ccc(S(=O)(=O)N[C@H](C(=O)O)C(C)C)cc3)cc2)oc2cccc(OCC3CC3)c12 [Example 51, L-2-{4′-[(4-Cyclopropylmethoxy-3-methyl-benzofuran-2-carbonyl)-amino]-biphenyl-4-sulfonylamino}-3-methyl-butyric acid] | 7110 | 187 | 11 |  |  |  |  |  |
| CC(C)[C@@H](NS(=O)(=O)c1ccc(-c2ccc(NC(=O)c3nc4ccccc4s3)cc2)cc1)C(=O)O [Example 152, D-2-{4′-[(Benzothiazole-2-carbonyl)-amino]-biphenyl-4-sulfonylamino}-3-methyl-butyric acid] |  | 1.1 | 0.7 |  |  |  |  |  |
| Cc1nn(C)c2sc(C(=O)Nc3ccc(-c4ccc(S(=O)(=O)N[C@H](C(=O)O)C(C)C)cc4)cc3)cc12 [Example 80, (S)-2-{4′-[(1,3-Dimethyl-1H-thieno[2,3-c]pyrazole-5-carbonyl)-amino]-biphenyl-4-sulfonylamino}-3-methyl-butyric acid] | 4350 | 51 | 43 |  |  |  |  |  |
| COc1cccc2oc(C(=O)Nc3ccc(-c4ccc(S(=O)(=O)N[C@H](C(=O)O)C(C)C)cc4)cc3)c(C)c12 [Example 105, (S)-2-{4′-[(4-Methoxy-3-methyl-benzofuran-2-carbonyl)-amino]-biphenyl-4-sulfonylamino}-3-methyl-butyric acid] | 1050 | 60 | 9.5 |  |  |  |  |  |
| CC(C)[C@H](NS(=O)(=O)c1ccc(-c2ccc(NC(=O)c3nc4ccccc4s3)cc2)cc1)C(=O)O [Example 151, L-2-{4′-[(Benzothiazole-2-carbonyl)-amino]-biphenyl-4-sulfonylamino}-3-methyl-butyric acid] |  | 11 | 0.4 | 70000 | 35000 |  |  |  |
| CC#Cc1cccc2oc(C(=O)Nc3ccc(-c4ccc(S(=O)(=O)N[C@H](C(=O)O)C(C)C)cc4)cc3)c(C)c12 [Example 21, L-3-Methyl-2-{4′-[(3-methyl-4-prop-1-ynyl-benzofuran-2-carbonyl)-amino]-biphenyl-4-sulfonylamino}-butyric acid] | 15000 | 175 | 9.5 |  |  |  |  |  |
| Cc1c(C(=O)Nc2ccc(-c3ccc(S(=O)(=O)N[C@H](C(=O)O)C(C)C)cc3)cc2)oc2cccc(C#CCN(C)C)c12 [Example 31, L-2-(4′-{[4-(3-Dimethylamino-prop-1-ynyl)-3-methyl-benzofuran-2-carbonyl]-amino}-biphenyl-4-sulfonylamino)-3-methyl-butyric acid] | 1450 | 155 | 16 |  |  |  |  |  |
| Cc1ccc2oc(C(=O)Nc3ccc(-c4ccc(S(=O)(=O)N[C@H](C(=O)O)C(C)C)cc4)cc3)nc2c1 [Example 129, (S)-3-Methyl-2-{4′-[(5-methyl-benzooxazole-2-carbonyl)-amino]-biphenyl-4-sulfonylamino}-butyric acid] | 116 | 1.9 | 0.8 |  |  |  |  |  |
| COc1c(Cl)ccc2oc(C(=O)Nc3ccc(-c4ccc(S(=O)(=O)N[C@H](C(=O)O)C(C)C)cc4)cc3)c(C)c12 [Example 116, (S)-2-{4′-[(5-Chloro-4-methoxy-3-methyl-benzofuran-2-carbonyl)-amino]-biphenyl-4-sulfonylamino}-3-methyl-butyric acid] | 1490 | 50 | 1.9 |  | 12400 |  | 34100 |  |
| CCOc1cccc2oc(C(=O)Nc3ccc(-c4ccc(S(=O)(=O)N[C@H](C(=O)O)C(C)C)cc4)cc3)c(C)c12 [Example 106, (S)-2-{4′-[(4-ethoxy-3-methyl-benzofuran-2-carbonyl)-amino]-biphenyl-4-sulfonylamino}-3-methyl-butyric acid] | 3590 | 121 | 7.4 |  |  |  |  |  |
| Cc1c(C(=O)Nc2ccc(-c3ccc(S(=O)(=O)N[C@H](C(=O)O)C(C)C)cc3)cc2)oc2cccc(NC(=O)C3CC3)c12 [Example 47, L-2-(4′-{[4-(Cyclopropanecarbonyl-amino)-3-methyl-benzofuran-2-carbonyl]-amino}-biphenyl-4-sulfonylamino)-3-methyl-butyric acid] | 4290 | 438 | 32 |  |  |  |  |  |
| Cc1c(C(=O)Nc2ccc(-c3ccc(S(=O)(=O)N[C@H](C(=O)O)C(C)C)cc3)cc2)oc2cccc(C#N)c12 [Example 20, L-2-{4′-[(4-Cyano-3-methyl-benzofuran-2-carbonyl)-amino]-biphenyl-4-sulfonylamino}-3-methyl-butyric acid] | 581 | 33 | 3.7 | 24000 |  |  |  | 5450 |
| Cc1c(C(=O)Nc2ccc(-c3ccc(S(=O)(=O)N[C@H](C(=O)O)C(C)C)cc3)cc2)oc2cccc(-c3cccc([N+](=O)[O-])c3)c12 [Example 110, (S)-3-Methyl-2-(4′-{[3-methyl-4-(3-nitro-phenyl)-benzofuran-2-carbonyl]-amino}-biphenyl-4-sulfonylamino)-butyric acid] | 2400 |  | 17 | 49600 | 20000 |  |  |  |
| Cc1c(C(=O)Nc2ccc(-c3ccc(S(=O)(=O)N[C@H](C(=O)O)C(C)C)cc3)cc2)oc2cccc(C(N)=O)c12 [Example 46, L-2-{4′-[(4-Carbamoyl-3-methyl-benzofuran-2-carbonyl)-amino]-biphenyl-4-sulfonylamino}-3-methyl-butyric acid] | 1000 | 187 | 14 | 20200 | 24800 |  |  |  |
